Assay results published in US20240408071A1, “NOVEL COMBINATION OF SEROTONIN RECEPTOR (5-HTR2B) ANTAGONIST AND AN IMMUNOMODULATOR AND CHEMOTHERAPEUTIC DRUGS FOR INHIBITION OF CANCER” (NATIONAL CENTRE FOR CELL SCIENCE, priority 2021, published 2024).

What was measured:
MC38 colon cancer cells = test: MC38 colon tumor growth (tumor volume) in C57BL/6 mice; assay type: in vivo
Description: Tumor volumes were measured and plotted. (B) MC38 colon cancer cells were injected subcutaneously into the right flank of C57BL/6 mice. After seven days when tumors became palpable, one group was treated with 5-HTR7 antagonist SB-269970 (n=6 mice; 3 mg/kg/day) or left untreated (n=6 mice). Tumor volume was measured and plotted. (C) After seven days of the setting of tumor growth, one group was treated with a serotonin transporter blocker (SSRI) sertraline hydrochloride (n=6 mice; 15 mg/kg/week) or left untreated (n=6 mice). Tumor volume was measured and plotted. (D) C57BL/6 mice were given subcutaneously injected MC38 cells. After seven days of tumor growth, one group of mice was treated with different doses of 5-HTR2B antagonist SB-215505 (n=6). Tumor volume was measured and plotted. (E) C57BL/6 mice were given subcutaneously injected MC38 cells. After seven days of the tumor growth, one group of mice was treated with different doses of 5-HTR2B antagonist SB-215505 (n=6), one group treated with 5-HTR2B agonist BW-723C86 (n=6; 4 mg/kg/day). Tumor volume was measured and plotted. (F) MC38 cells were subcutaneously injected into C57BL/6 mice. After seven days when the tumor became palpable in mice, one group of mice was treated with FDA-approved 5-HTR2B antagonist cariprazine (Carispec; Sun pharma) via oral gavage (n=5 mice; dose 5 mg/kg body weight/day) or left untreated (n=5 mice). Tumor growth was measured and plotted. […] All the statistical analysis was performed using Student's ‘t’ test or two-way ANOVA using Sidak's multiple comparison test. *P<0.05; **P<0.01; ***P<0.00; ****P<0.0001 Error bar represents mean±standard error of means (SEM).

PD-L1 = PD-L1 expression on MC38 cells in vitro (flow cytometry, mRNA); assay type: cell-based, mouse; conditions: BW-723C86 50 μM, serotonin 100 μM, RS-127445 50 μM, 72 hours (mRNA 48 hours) (FIG. 13A-E)
Description: FIG. 13 depicts 5-HTR2B signaling promotes PD-L1 expression on the MC38 cell line in vitro: (A-B) MC38 cells are treated with 5-HTR2B agonist (BW-723C86-50 μM), serotonin (100 μM), and 5-HTR2B antagonist (RS-127445-50 μM) for 72 hours, and the PD-L1 expression was checked by flow cytometry and the percentage of PD-L1^+ MC38 cells was plotted. (C-D) MFI of PD-L1 from the above experiment were plotted as histogram overlay (C) or as statistical data points (D). (E) Relative PD-L1 mRNA expression in MC38 cells following BW-723C86 and RS-127445 treatment for 48 hours. Here the values are shown as a fold change as compared to control MC38 cells. (F) Serum PD-L1 level was measured by ELISA of naïve C57BL/6J mice, control MC38 tumor-bearing mice, BW-723C86 (5 mg/kg/day) treated MC38 tumor-bearing mice and RS-127445 (5 mg/kg/day) treated MC38 tumor-bearing mice after 14 days of tumor inoculation. All the statistical analysis was performed using either Student's ‘t’ test or two-way ANOVA using Sidak's multiple comparison test. *P<0.05; **P<0.01; […]; ****P<0.0001 Error bar represents mean±standard error of means (SEM).
To understand it, investigations were done on whether 5-HTR2B signaling also affects the surface expression of molecules that alters inflammatory and cytotoxic immune cells. Among different molecules, PD-L1 is of particular interest as it is an immune checkpoint ligand that affects cytotoxic T-cell responses toward cancer. […] (FIG. 13F).

MC38 cells [1] = test: MTT cell viability assay; assay type: cell-based, mouse; conditions: graded dose; reduced serum media; 48 hours of stimulation
Description: FIG. 6 depicts that 5-HTR2B signalling in colon cancer affects cell proliferation and viability: Colon cancer MC38 cells were treated with serotonin (100 μM), 5-HTR2B agonist (BW-723C86; 50 μM), or 5-HTR2B antagonist (SB-215505; 50 μM) for 48 hours, and cell cycle analysis was performed by propidium iodide staining using flow cytometry. MC38 cells were also treated with a graded dose of 5-HTR2B agonist (BW-723C86) or serotonin. MTT assay was performed to measure cell viability. (A) After treatment with 5-HTR2B agonist BW-723C86, serotonin, or 5-HTR2B antagonist SB-215505, the relative cell cycle analysis is shown. (B) Relative cell viability data of MC38 cells following treatment of graded doses of 5-HTR2B agonist BW-723C86 or serotonin are shown. The data shown are representative of one of the three independent experiments. (C) MC38 tumor sections from the control tumor and 5-HTR2B antagonist treated tumor were stained for CD31 and the number of CD31^+ micro-blood vessels/mm^2 of tissue sections was counted and plotted to observe angiogenesis. Error bar represents ±standard error of the mean (SEM).
MC38 cells were cultured at a density of 0.5×10^4 cells/well in 96 well plates (flat bottom) and were allowed to adhere for 24 hours. […] Then, MTT crystals were dissolved with DMSO, and the reading was taken at 590 nm in an ELISA reader (Thermofisher). […]

4T1-Luc2 cells = test: 4T1-Luc2 breast cancer model, tumor volume; assay type: in vivo, BALB/c mice; conditions: SB-215505 vs untreated, from day 7 (FIG. 7G)
Description: FIG. 7 depicts that antagonizing the 5-HTR2B in mice inhibits breast and colon tumor growth: (A) MC38 colon cancer cells were injected subcutaneously into the right flank of C57BL/6 mice. […] Tumor volumes were measured and plotted. (B) MC38 colon cancer cells were injected subcutaneously into the right flank of C57BL/6 mice. After seven days when tumors became palpable, one group was treated with 5-HTR7 antagonist SB-269970 (n=6 mice; 3 mg/kg/day) or left untreated (n=6 mice). Tumor volume was measured and plotted. (C) After seven days of the setting of tumor growth, one group was treated with a serotonin transporter blocker (SSRI) sertraline hydrochloride (n=6 mice; 15 mg/kg/week) or left untreated (n=6 mice). Tumor volume was measured and plotted. (D) C57BL/6 mice were given subcutaneously injected MC38 cells. After seven days of tumor growth, one group of mice was treated with different doses of 5-HTR2B antagonist SB-215505 (n=6). Tumor volume was measured and plotted. […] Tumor volume was measured and plotted. […] Tumor growth was measured and plotted. […] Tumour volumes were measured and plotted. […] Tumour volumes were measured and plotted. […]
FIG. 16 depicts the effect of the 5-HTR2B antagonist on the FDA-approved chemotherapy drug treatment: (A) BALB/C mice were inoculated with 4T1-Luc2 cells in the mammary fat pad. […] Tumor volume was measured and plotted. […]

MC38 cells [2] = test: MC38 tumor growth in immuno-compromised NRG mice; assay type: in vivo; conditions: 4 mg/kg/day from day 7; not as much as in wild-type mice (FIG. 8B)
Description: FIG. 8 depicts that 5-HTR2B antagonism promotes antigen-specific immune response to the tumor: (A) Experimental protocol for SB-215505 treatment in MC38 tumor-bearing NRG mice. In brief, (B) MC38 cells were injected subcutaneously into NRG mice. After seven days of the tumor growth setting in mice, one group of mice was treated with 5-HTR2B antagonist SB-215505 (n=5 mice) or left untreated (n=5 mice). Tumour volumes were measured and plotted. (C) Experimental protocol for adoptive transfer of SB-215505 pre-treated naïve or MC38 tumor primed immune cells in MC38 tumor-bearing NRG mice. In brief: (D) MC38 cells were injected subcutaneously into NRG mice. Those mice were adoptively transferred with naïve (n=4 mice) or MC38 tumor primed immune cells (n=4 mice) or SB-215505 pre-treated naïve (n=4 mice) or SB-215505 pre-treated MC38 tumor primed immune cells (n=4 mice) from the day of tumor inoculation. After the tumor begins to appear, tumor volumes were measured and plotted. […]
MC38 and MC38-cOVA cells were injected subcutaneously into the right flank of male C57BL/6 or NRG mice (0.5×10^6 cells/mouse in 150 μl PBS). […] Tumor volume was measured using a Vernier caliper on each alternate day or every third day as soon as the tumor appears. The volume of the tumor was measured using the formula V=L×W^2/2, where L=length of the tumor (mm) and W=width of the tumor (mm). […]

B16F10 cells = test: B16F10 melanoma model, tumor volume; assay type: in vivo, C57BL/6J mice; conditions: SB-215505 vs untreated, from day 7 (FIG. 7H)
Description: FIG. 7 depicts that antagonizing the 5-HTR2B in mice inhibits breast and colon tumor growth: (A) MC38 colon cancer cells were injected subcutaneously into the right flank of C57BL/6 mice. […] Tumor volumes were measured and plotted. (B) MC38 colon cancer cells were injected subcutaneously into the right flank of C57BL/6 mice. After seven days when tumors became palpable, one group was treated with 5-HTR7 antagonist SB-269970 (n=6 mice; 3 mg/kg/day) or left untreated (n=6 mice). Tumor volume was measured and plotted. (C) After seven days of the setting of tumor growth, one group was treated with a serotonin transporter blocker (SSRI) sertraline hydrochloride (n=6 mice; 15 mg/kg/week) or left untreated (n=6 mice). Tumor volume was measured and plotted. (D) C57BL/6 mice were given subcutaneously injected MC38 cells. After seven days of tumor growth, one group of mice was treated with different doses of 5-HTR2B antagonist SB-215505 (n=6). Tumor volume was measured and plotted. (E) C57BL/6 mice were given subcutaneously injected MC38 cells. After seven days of the tumor growth, one group of mice was treated with different doses of 5-HTR2B antagonist SB-215505 (n=6), one group treated with 5-HTR2B agonist BW-723C86 (n=6; 4 mg/kg/day). Tumor volume was measured and plotted. […] Tumor growth was measured and plotted. […] Tumour volumes were measured and plotted. […] Tumour volumes were measured and plotted. […]

[3] = 4 mg/kg/day from day 7 after inoculation, vs untreated (FIG. 7A)

CN(C)C(=O)N[C@H]1CC[C@H](CCN2CCN(c3cccc(Cl)c3Cl)CC2)CC1 [cariprazine]
MC38 tumor growth (MC38 colon cancer cells; oral gavage, 5 mg/kg body weight/day (FIG. 7F)): significant reduction in MC38 tumor growth

NCCc1c[nH]c2ccc(O)cc12 [serotonin]
expression of PD-L1 in the colon cancer cells (PD-L1): did not significantly alter the PD-L1 expression | viability of MC38 cells (MC38 cells [1]): enhanced the viability of MC38 cells

Cc1nc2sccn2c(=O)c1CCN1CCC(=C(c2ccc(F)cc2)c2ccc(F)cc2)CC1 [Ritanserin]
MC38 tumor growth (MC38 colon cancer cells; [3]): controls tumor growth to some extent | MC38 tumor growth (MC38 colon cancer cells; 4 mg/kg/day from day 7 after inoculation, vs untreated (FIG. 7A), listed as ritanserin): did not prevent tumor growth

Cc1cc2c(cc1Cl)N(C(=O)Nc1cccc3ncccc13)CC2 [SB-215505]
tumor burden, mice breast cancer model (4T1-Luc2 cells): reduced tumor burden | MC38 tumor growth in NRG mice (MC38 cells [2]): suppressed to some extent | MC38 tumor growth (MC38 colon cancer cells; [3]): efficiently control the tumor growth | most efficient dose in reducing MC38 tumor growth (MC38 colon cancer cells; dose-response, doses from 0.5 mg/kg/day to 4 mg/kg/day (FIG. 7D)): 4 mg/kg/day | tumor burden, mice melanoma model (B16F10 cells): reduced tumor burden
